# Patent US8501977B2, “Platinum complex and pharmaceutical composition containing the same” (Unitech Co., Ltd., priority 2008, dated 2013)
# Assays:
# [1] = tested on: A549 (human lung cancer cell); experiment: MTS cell proliferation test, A549 (Embodiment 8); type: cell-based
# Protocol: (§1) Respectively, the S medicine test solution was prepared by dissolving the ((S,S,S) cis,cis-spiro[4,4]nonane-1,6-diamine)oxalatoplatinum(II) complex (compound 2; hereinafter, it is described as S medicine) into the dimethylsulfoxide (DMSO) with the concentration of 10 mg/ml and the R medicine test solution was prepared by dissolving the ((R,R,R)cis,cis-spiro[4,4]nonane-1,6-diamine) oxalatoplatinum(II) complex (compound 3; hereinafter, it is described as R medicine) into the dimethylsulfoxide (DMSO) with the concentration of 10 mg/ml.
# (§2) The test was performed by using A549 (human lung cancer cell), LU65A (human lung cancer cell), RERF-LC-MA (human lung cancer cell), LU99 (human lung cancer cell), H460 (human lung cancer cell), HCT116 (human colon cancer cell), HT-29 (human colon cancer cell), MKN-45 (human gastric cancer cell), MKN-1 (human gastric cancer cell), U937 (human lymphoma cell), KP-1N (human pancreas cancer cell) and B2452 (human mesotheliama cell) as the cancer cell.
# (§3) These cells were suspended in the each culture medium that the serum of 10% was added, and were dispensed in 96-well plate. And then, these were cultured in 5% CO2 at 37 degrees centigrade during a night. Next day, the S medicine test solution and the R medicine test solution were prepared in the culture medium to the various concentrations (5, 10, 20 μg/ml), and were dispensed into the plates that the cells were set preliminarily. And further, these were cultured in 5% CO2 at 37 degrees centigrade for three days.
# (§4) The cell proliferation after the medicine addition was measured on the 3rd day from the 1st day after the medicine addition by the MTS method (kit for cell proliferation test manufactured by Promega Company).
# (§5) The inhibition rate (%) of the cell proliferation was obtained from the measured MTS value by the following formula. Inhibition rate(%)=(1-MTS value of medicine addition group/MTS value of medicine non-addition group)×100
# (§6) Because the value which was obtained by the above-mentioned formula represents the inhibition rate of the cell proliferation, the higher the numerical value is, the higher the medicine effect is. It is desired that the one whose value is 50% or more has the medicine effect.
# [2] = tested on: LU65A (human lung cancer cell); experiment: MTS cell proliferation test, LU65A (Embodiment 8); type: cell-based
# Protocol: as §1, §2, §3, §4, §5, §6
# [3] = tested on: RERF-LC-MA (human lung cancer cell); experiment: MTS cell proliferation test, RERF-LC-MA (Embodiment 8); type: cell-based
# Protocol: as §1, §2, §3, §4, §5, §6
# [4] = tested on: LU99 (human lung cancer cell); experiment: MTS cell proliferation test, LU99 (Embodiment 8); type: cell-based
# Protocol: as §1, §2, §3, §4, §5, §6
# [5] = tested on: H460 (human lung cancer cell); experiment: MTS cell proliferation test, H460 (Embodiment 8); type: cell-based
# Protocol: as §1, §2, §3, §4, §5, §6
# [6] = tested on: HCT116 (human colon cancer cell); experiment: MTS cell proliferation test, HCT116 (Embodiment 8); type: cell-based
# Protocol: as §1, §2, §3, §4, §5, §6
# [7] = tested on: HT-29 (human colon cancer cell); experiment: MTS cell proliferation test, HT-29 (Embodiment 8); type: cell-based
# Protocol: as §1, §2, §3, §4, §5, §6
# [8] = tested on: MKN-45 (human gastric cancer cell); experiment: MTS cell proliferation test, MKN-45 (Embodiment 8); type: cell-based
# Protocol: as §1, §2, §3, §4, §5, §6
# [9] = tested on: MKN-1 (human gastric cancer cell); experiment: MTS cell proliferation test, MKN-1 (Embodiment 8); type: cell-based
# Protocol: as §1, §2, §3, §4, §5, §6
# [10] = tested on: U937 (human lymphoma cell); experiment: MTS cell proliferation test, U937 (Embodiment 8); type: cell-based
# Protocol: as §1, §2, §3, §4, §5, §6
# [11] = tested on: KP-1N (human pancreas cancer cell); experiment: MTS cell proliferation test, KP-1N (Embodiment 8); type: cell-based
# Protocol: as §1, §2, §3, §4, §5, §6
# [12] = tested on: H2452 cell (human mesothelicana cell); experiment: MTS cell proliferation test, H2452 (Embodiment 8); type: cell-based
# Protocol: as §1, §2, §3, §4, §5, §6
# tumor cells = experiment: MTS cell proliferation test, all cancer cells of Embodiment 8; type: cell-based, human; conditions: summary of Table 2 in words
# Protocol: as §1
# as §2, with “cell. […]” for “cell.”
# as §4
# The inhibition rate (%) of the cell proliferation was obtained from the measured MTS value by the following formula. […]
smiles,measurement,setting,value
"NC1CCCC12CCCC2N.O=C1[O][Pt][O]C1=O [S medicine, ((S,S,S) cis,cis-spiro[4,4]nonane-1,6-diamine)oxalatoplatinum(II) complex]",Inhibition rate of cell proliferation after 3 days from medicine addition (%),"[1]; A549, 5 μg/ml",X (X: 0~25%)
same,Inhibition rate of cell proliferation after 3 days from medicine addition (%),"[1]; A549, 10 μg/ml",◯ (◯: 51~75%)
same,Inhibition rate of cell proliferation after 3 days from medicine addition (%),"[1]; A549, 20 μg/ml",⊚ (⊚: 76~100%)
same,Inhibition rate of cell proliferation after 3 days from medicine addition (%),[2]; 5 μg/ml,◯ (◯: 51~75%)
same,Inhibition rate of cell proliferation after 3 days from medicine addition (%),[2]; 10 μg/ml,⊚ (⊚: 76~100%)
same,Inhibition rate of cell proliferation after 3 days from medicine addition (%),[2]; 20 μg/ml,⊚ (⊚: 76~100%)
same,Inhibition rate of cell proliferation after 3 days from medicine addition (%),[3]; 5 μg/ml,X (X: 0~25%)
same,Inhibition rate of cell proliferation after 3 days from medicine addition (%),[3]; 10 μg/ml,Δ (Δ: 26~50%)
same,Inhibition rate of cell proliferation after 3 days from medicine addition (%),[3]; 20 μg/ml,◯ (◯: 51~75%)
same,Inhibition rate of cell proliferation after 3 days from medicine addition (%),"[4]; LU99, 5 μg/ml",◯ (◯: 51~75%)
same,Inhibition rate of cell proliferation after 3 days from medicine addition (%),"[4]; LU99, 10 μg/ml",⊚ (⊚: 76~100%)
same,Inhibition rate of cell proliferation after 3 days from medicine addition (%),"[4]; LU99, 20 μg/ml",⊚ (⊚: 76~100%)
same,Inhibition rate of cell proliferation after 3 days from medicine addition (%),"[5]; H460, 5 μg/ml",Δ (Δ: 26~50%)
same,Inhibition rate of cell proliferation after 3 days from medicine addition (%),"[5]; H460, 10 μg/ml",◯ (◯: 51~75%)
same,Inhibition rate of cell proliferation after 3 days from medicine addition (%),"[5]; H460, 20 μg/ml",⊚ (⊚: 76~100%)
same,Inhibition rate of cell proliferation after 3 days from medicine addition (%),"[6]; HCT116, 5 μg/ml",◯ (◯: 51~75%)
same,Inhibition rate of cell proliferation after 3 days from medicine addition (%),"[6]; HCT116, 10 μg/ml",◯ (◯: 51~75%)
same,Inhibition rate of cell proliferation after 3 days from medicine addition (%),"[6]; HCT116, 20 μg/ml",◯ (◯: 51~75%)
same,Inhibition rate of cell proliferation after 3 days from medicine addition (%),"[7]; HT-29, 5 μg/ml",Δ (Δ: 26~50%)
same,Inhibition rate of cell proliferation after 3 days from medicine addition (%),"[7]; HT-29, 10 μg/ml",Δ (Δ: 26~50%)
same,Inhibition rate of cell proliferation after 3 days from medicine addition (%),"[7]; HT-29, 20 μg/ml",◯ (◯: 51~75%)
same,Inhibition rate of cell proliferation after 3 days from medicine addition (%),"[8]; MKN-45, 5 μg/ml",⊚ (⊚: 76~100%)
same,Inhibition rate of cell proliferation after 3 days from medicine addition (%),"[8]; MKN-45, 10 μg/ml",⊚ (⊚: 76~100%)
same,Inhibition rate of cell proliferation after 3 days from medicine addition (%),"[8]; MKN-45, 20 μg/ml",⊚ (⊚: 76~100%)
same,Inhibition rate of cell proliferation after 3 days from medicine addition (%),"[9]; MKN-1, 5 μg/ml",◯ (◯: 51~75%)
same,Inhibition rate of cell proliferation after 3 days from medicine addition (%),"[9]; MKN-1, 10 μg/ml",⊚ (⊚: 76~100%)
same,Inhibition rate of cell proliferation after 3 days from medicine addition (%),"[9]; MKN-1, 20 μg/ml",⊚ (⊚: 76~100%)
same,Inhibition rate of cell proliferation after 3 days from medicine addition (%),"[10]; U937, 5 μg/ml",⊚ (⊚: 76~100%)
same,Inhibition rate of cell proliferation after 3 days from medicine addition (%),"[10]; U937, 10 μg/ml",⊚ (⊚: 76~100%)
same,Inhibition rate of cell proliferation after 3 days from medicine addition (%),"[10]; U937, 20 μg/ml",⊚ (⊚: 76~100%)
same,Inhibition rate of cell proliferation after 3 days from medicine addition (%),[11]; 5 μg/ml,Δ (Δ: 26~50%)
same,Inhibition rate of cell proliferation after 3 days from medicine addition (%),[11]; 10 μg/ml,◯ (◯: 51~75%)
same,Inhibition rate of cell proliferation after 3 days from medicine addition (%),[11]; 20 μg/ml,⊚ (⊚: 76~100%)
same,Inhibition rate of cell proliferation after 3 days from medicine addition (%),"[12]; H2452, 5 μg/ml",X (X: 0~25%)
same,Inhibition rate of cell proliferation after 3 days from medicine addition (%),"[12]; H2452, 10 μg/ml",Δ (Δ: 26~50%)
same,Inhibition rate of cell proliferation after 3 days from medicine addition (%),"[12]; H2452, 20 μg/ml",Δ (Δ: 26~50%)
same,medicine effect for the many tumor cells,tumor cells,high medicine effect compared with the oxaliplatin
